Several values for one entry are separate records, joined by “and”; a condition that tells them apart may be missing. Identical values can stand only once. Toxic doses and inconclusive results are not listed. How the source made its calls: active means survival T/C of 150% or more; inactive means T/C below 125% in these data. Peptide text beside a SMILES is read from it.
System: P388 leukemia ip, CD2F1 mice, survival T/C
Test: NCI In Vivo Anticancer Drug Screen. Data for tumor model P388 Leukemia (intraperitoneal) in CD2F1 (CDF1) mice
Conditions: endpoint: median survival time, higher = longer survival
Method in brief: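 Mice carrying the transplanted tumor received test compound or vehicle. Survival was recorded in each group, and the value is the treated-group measurement divided by that of the vehicle-treated control group.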

[1] = dose: 50.0 mg/kg/injection, schedule: Q01DX005 (ip), vehicle: saline with Tween-80
[2] = dose: 100.0 mg/kg/injection, schedule: Q01DX005 (ip), vehicle: saline with Tween-80
[3] = dose: 200.0 mg/kg/injection, schedule: Q01DX005 (ip), vehicle: saline with Tween-80
[4] = dose: 50.0 mg/kg/injection, schedule: Q01DX009 (ip), vehicle: saline
[5] = dose: 100.0 mg/kg/injection, schedule: Q01DX009 (ip), vehicle: saline
[6] = dose: 60.0 mg/kg/injection, schedule: Q01DX005 (ip), vehicle: saline with Tween-80
[7] = dose: 50.0 mg/kg/injection, schedule: Q01DX009 (ip), vehicle: saline with Tween-80
[8] = dose: 100.0 mg/kg/injection, schedule: Q01DX009 (ip), vehicle: saline with Tween-80
[9] = dose: 100.0 mg/kg/injection, schedule: Q04DX003 (ip), vehicle: saline with Tween-80
[10] = dose: 200.0 mg/kg/injection, schedule: Q01DX009 (ip), vehicle: saline with Tween-80
[11] = dose: 200.0 mg/kg/injection, schedule: Q04DX003 (ip), vehicle: saline with Tween-80
[12] = dose: 200.0 mg/kg/injection, schedule: Q01DX009 (ip), vehicle: saline
[13] = dose: 25.0 mg/kg/injection, schedule: Q01DX009 (ip), vehicle: saline with Tween-80

Measured: T/C

NC(CC(=O)O)C(=O)NC(CC(=O)O)C(=O)O (stereo not drawn) (H-Asp-Asp-OH; configuration not given here)
inactive: dose: 50.0 mg/kg/injection, schedule: Q01DX005 (ip), vehicle: saline 101 % of control | dose: 100.0 mg/kg/injection, schedule: Q01DX005 (ip), vehicle: saline 99 % of control | dose: 200.0 mg/kg/injection, schedule: Q01DX005 (ip), vehicle: saline 97 % of control

C/C(=N/NC(=S)NNC(=S)N(C)c1ccccc1)c1nccc2ccccc12
inactive: [1] 102 % of control | [2] 101 % of control | [3] 104 % of control

O=S(=O)(OC1=CCCCCC1)C(F)(F)F
inactive: dose: 50.0 mg/kg/injection, schedule: Q01DX009 (ip), vehicle: olive oil, sesame oil, peanut oil 106 % of control | dose: 100.0 mg/kg/injection, schedule: Q01DX009 (ip), vehicle: olive oil, sesame oil, peanut oil 91 % of control | dose: 200.0 mg/kg/injection, schedule: Q01DX009 (ip), vehicle: olive oil, sesame oil, peanut oil 114 % of control

COC(=O)C1=CO[C@@H](OC2OC(CO)C(O)C(O)C2O)[C@H]2[C@@H]1C=C[C@@]21C=C([C@@H](C)O)C(=O)O1 (some centres undefined)
inactive: dose: 1.63 mg/kg/injection, schedule: Q01DX005 (ip), vehicle: Klucel (hydroxypropylcellulose) (HPC) 99 % of control | dose: 3.25 mg/kg/injection, schedule: Q01DX005 (ip), vehicle: Klucel (hydroxypropylcellulose) (HPC) 101 % of control | dose: 6.5 mg/kg/injection, schedule: Q01DX005 (ip), vehicle: Klucel (hydroxypropylcellulose) (HPC) 101 % of control | dose: 13.0 mg/kg/injection, schedule: Q01DX005 (ip), vehicle: Klucel (hydroxypropylcellulose) (HPC) 95 % of control

COCC(=O)O
inactive: [4] 96 % of control | [5] 93 % of control

Cc1cc(=O)oc2cc(OCc3c(F)cccc3Cl)ccc12
inactive: [6] 97 % of control | dose: 120.0 mg/kg/injection, schedule: Q01DX005 (ip), vehicle: saline with Tween-80 90 % of control | dose: 240.0 mg/kg/injection, schedule: Q01DX005 (ip), vehicle: saline with Tween-80 91 % of control

CCC(C)C(NC(=O)C(C)Oc1cc(Cl)c(Cl)cc1Cl)C(=O)O (centres undefined)
inactive: [1] 92 % of control | [2] 101 % of control

Cc1ccc(N=C(N)NC#N)cc1
inactive: [7] 100 % of control | [8] 90 % of control | [9] 91 % of control | [10] 90 % of control | [11] 87 % of control

CC(=O)Nc1cccn(C)c1=O
inactive: dose: 6.25 mg/kg/injection, schedule: Q01DX009 (ip), vehicle: distilled water + Tween-80 100 % of control | dose: 12.5 mg/kg/injection, schedule: Q01DX009 (ip), vehicle: distilled water + Tween-80 100 % of control | dose: 12.5 mg/kg/injection, schedule: Q01DX009 (ip), vehicle: water 98 % of control | dose: 25.0 mg/kg/injection, schedule: Q01DX009 (ip), vehicle: distilled water + Tween-80 102 % of control | dose: 25.0 mg/kg/injection, schedule: Q01DX009 (ip), vehicle: water 123 % of control | dose: 50.0 mg/kg/injection, schedule: Q01DX009 (ip), vehicle: distilled water + Tween-80 107 % of control | dose: 50.0 mg/kg/injection, schedule: Q01DX009 (ip), vehicle: water 112 % of control | dose: 100.0 mg/kg/injection, schedule: Q01DX009 (ip), vehicle: distilled water + Tween-80 120 % of control | dose: 100.0 mg/kg/injection, schedule: Q01DX009 (ip), vehicle: water 113 % of control | dose: 200.0 mg/kg/injection, schedule: Q01DX009 (ip), vehicle: water 112 % of control

O=C(CC(=O)NO)NO
inactive: [7] 106 % of control | [4] 115 % of control | [8] 108 % of control | [5] 110 % of control | [10] 108 % of control | [12] 108 % of control

O=C1CSCc2nc3ccccc3n21
inactive: dose: 100.0 mg/kg/injection, schedule: Q01DX001 (ip), vehicle: saline 95 % of control | [5] 103 % of control | dose: 200.0 mg/kg/injection, schedule: Q01DX001 (ip), vehicle: saline 104 % of control | [12] 103 % of control | dose: 400.0 mg/kg/injection, schedule: Q01DX001 (ip), vehicle: saline 104 % of control

O=C(O)Cc1ccccc1C(=O)O.[Pb]
inactive: [13] 90 % of control | [7] 104 % of control | [8] 86 % of control

ON(C=Nc1ccccc1)c1ccccc1
inactive: [4] 101 % of control | [5] 101 % of control | [12] 97 % of control

COC(=O)C1=C(C(=O)OC)P2(C)(C)ON(c3ccccc3)C(C(=O)c3ccccc3)N2C1(c1ccccc1)c1ccccc1 (centres undefined)
inactive: dose: 50.0 mg/kg/injection, schedule: Q01DX005 (ip), vehicle: Klucel (hydroxypropylcellulose) (HPC) 100 % of control | dose: 100.0 mg/kg/injection, schedule: Q01DX005 (ip), vehicle: Klucel (hydroxypropylcellulose) (HPC) 93 % of control | dose: 200.0 mg/kg/injection, schedule: Q01DX005 (ip), vehicle: Klucel (hydroxypropylcellulose) (HPC) 98 % of control

Cc1ccccc1N=Cc1ccc(N(C)C)cc1
inactive: [8] 91 % of control | [10] 87 % of control

O=C(NCCNC(=O)c1cc(Cl)cc(Cl)c1O)c1cc(Cl)cc(Cl)c1O
inactive: dose: 15.0 mg/kg/injection, schedule: Q01DX005 (ip), vehicle: saline with Tween-80 92 % of control | dose: 30.0 mg/kg/injection, schedule: Q01DX005 (ip), vehicle: saline with Tween-80 92 % of control | [6] 87 % of control and 89 % of control

N#CCc1ccc([N+](=O)[O-])cc1C(=O)O
inactive: [1] 104 % of control | [2] 104 % of control | [3] 101 % of control

O=C(CSc1nc(-c2ccccc2)c(-c2ccccc2)o1)N1CCCCC1
inactive: [4] 93 % of control | [5] 110 % of control | [12] 110 % of control

CCOC(=O)CSc1ccc(C)cc1C(O)(C(F)(F)F)C(F)(F)F
inactive: dose: 12.5 mg/kg/injection, schedule: Q01DX009 (ip), vehicle: saline with Tween-80 98 % of control | [13] 99 % of control | [7] 108 % of control | [8] 99 % of control | [10] 101 % of control

CCOC(=O)c1c(C)c2c(n1C)CCc1cn[nH]c1-2
inactive: dose: 25.0 mg/kg/injection, schedule: Q01DX009 (ip), vehicle: Klucel (hydroxypropylcellulose) (HPC) 99 % of control | dose: 50.0 mg/kg/injection, schedule: Q01DX009 (ip), vehicle: Klucel (hydroxypropylcellulose) (HPC) 105 % of control | dose: 100.0 mg/kg/injection, schedule: Q01DX009 (ip), vehicle: Klucel (hydroxypropylcellulose) (HPC) 107 % of control | dose: 200.0 mg/kg/injection, schedule: Q01DX009 (ip), vehicle: Klucel (hydroxypropylcellulose) (HPC) 107 % of control | dose: 400.0 mg/kg/injection, schedule: Q01DX009 (ip), vehicle: Klucel (hydroxypropylcellulose) (HPC) 98 % of control | dose: 600.0 mg/kg/injection, schedule: Q01DX009 (ip), vehicle: Klucel (hydroxypropylcellulose) (HPC) 98 % of control

CCSC(=O)OCC(C)([N+](=O)[O-])[N+](=O)[O-]
inactive: dose: 100.0 mg/kg/injection, schedule: Q04DX003 (ip), vehicle: saline 94 % of control | dose: 200.0 mg/kg/injection, schedule: Q04DX003 (ip), vehicle: saline 94 % of control | dose: 400.0 mg/kg/injection, schedule: Q04DX003 (ip), vehicle: saline 100 % of control

Nc1cc(=O)c2n[nH]nc2[nH]1
inactive: dose: 50.0 mg/kg/injection, schedule: Q04DX003 (ip), vehicle: saline with Tween-80 100 % of control | [9] 108 % of control | [11] 108 % of control | dose: 400.0 mg/kg/injection, schedule: Q04DX003 (ip), vehicle: saline with Tween-80 107 % of control

Reference: PubChem BioAssay AID330 (DTP/NCI, 2004)
